Data taken from patent US5585380A, “Modulation of cellular response to external stimuli” (priority 1995, dated 1996).

Assays:
[1] = test system: NIH3T3 murine fibroblast cells transformed with a mutated K-ras; experiment: Growth and soft agar colonies of K-ras transformed NIH3T3 cells in vitro; type: cell-based; conditions: concentrations at or greater than 0.5 mM
Experimental: Additionally, NIH3T3 murine fibroblast cells transformed with a mutated K-ras (codon 12 Gly-Val) were tested in vitro and in nude mice.

[2] = test system: IL-6 transcripts in bone marrow stromal cells; experiment: Northern blot of IL-6 transcripts; type: cell-based; conditions: three-hour exposure, increasing concentrations; FIG. 16
[3] = test system: TNF, IL-2 and IL-2 receptor transcripts in CD3 positive lymphocytes; experiment: Northern blots of CD3 positive lymphocytes in a mixed lymphocyte reaction; type: cell-based
[4] = test system: HLA-DR, CD71, CD25 and CD69 on MLR-stimulated lymphocytes; conditions: Singer et al.; cited from earlier work
[5] = test system: human leukemic cell line (Mo7e); experiment: GM-CSF-stimulated colony formation in semisolid medium; type: cell-based; conditions: rhGM-CSF; colonies counted after 10 days; FIG. 14
Experimental: The human leukemic cell line (Mo7e) is dependent on added granulocyte-macrophage colony-stimulating factor (GM-CSF) for growth. Mo7e cells were cultured in semisolid medium with and without pentoxifylline (PTX) and rhGM-CSF. Colonies were counted 10 days after culture initiation under an inverted microscope. […] PTX thus prevents the up-regulation of activation-associated genes which inhibit proliferation.

TNFα = conditions: Singer et al.; cited from earlier work
[6] = test system: IL-8 encoding mRNA in U937 and THP1 monocytic cell lines; experiment: Northern blot of IL-8 mRNA after lipopolysaccharide or GM-CSF; type: cell-based; conditions: induced by lipopolysaccharide or GM-CSF
Experimental: The murine fibrosarcoma cell line, L929, was also tested as an indicator for assays of TNF cytotoxicity. Cell growth was assayed by crystal violet staining using optical density as a measure of growth. […] Finally, two monocytic cell lines, U937 and THP1, were used to test the effect of pentoxifylline on the […] of the cytokine IL-8. The cell lines in culture were induced to upregulate IL-8 production by lipopolysaccharide or GM-CSF.

[7] = test system: phosphatidic acid phosphohydrolase (PAPH); experiment: Invention assay: HPLC of lipids from IL-1-stimulated mesangial cells, PAPH; type: cell-based, human; conditions: 0.5 mM; subsequent determinations
Experimental: (§1) This example also illustrates the method of the invention.
(§2) Human glomerular mesangial cells were incubated with IL-1 for various time periods of 5-60 seconds and the cells were fixed in ice-cold methanol, and the lipids extracted using chloroform:methanol 2:1 (v/v). It is very important that the fixing/extraction process be conducted quickly so that the decomposition of unstable intermediates is halted.
(§3) The extracts were subjected to HPLC on a Rainin mu-Porasil column with a 3:4 hexane:propanol organic carrier and a 1-10% water gradient during the first 10 minutes of separation. The relative concentration of each lipid species is determined using absorption at 206 nm (A206), which follows unsaturated acyl content of lipid species. […] The absolute mass of each lipid species is determined by lisolation of the lipid using a fraction collector, repurification on the HPLC column. Determination of phospholipid phosphorus is as nmoles/mg cellular protein. Protein concentration is determined using the Bradford technique.

[8] = test system: lyso-PA acyl transferase (LPAAT); experiment: Invention assay: HPLC of lipids from IL-1-stimulated mesangial cells, LPAAT; type: cell-based, human; conditions: compared with 0.5 mM; subsequent determinations
Experimental: as §1, §2, §3

[9] = test system: SV40 T-antigen-transformed human kidney mesangial cells; experiment: Tritiated thymidine uptake of transformed mesangial cells with rhIL-1 or TNFα; type: cell-based
Experimental: SV40 T-antigen-transformed human kidney mesangial cells were cultured under standard conditions with rhIL-1 or with TNFα with and without pentoxifylline (PTX). Transformed mesangial cells grow independently of added growth factors, but IL-1 and TNFα are the normal proliferative signals for mesangial cells. As was shown in Example 1, when IL-1 is added to kidney mesangial cells, within 30 seconds LPAAT and PAPH are activated; the effect of both of these enzymes is inhibited by pentoxifylline at 1 mM. In this experiment, the growth of the treated cells was measured using tritiated thymidine uptake.

[10] = test system: PA and DAG levels in human glomerular mesangial cells; experiment: Invention assay: HPLC of lipids from IL-1-stimulated mesangial cells; type: cell-based
Experimental: The compounds of Formula I are shown to modulate the effects of primary stimuli which elevate levels of the relevant subspecies of PA and DAG using the assay system of the invention. In general for the assay, the cells to be tested are first incubated with the primary stimulating agent for various time periods and fixed in ice-cold methanol. The lipids are extracted using, for example, chloroform:methanol 2:1 (v/v), and the extracts are then subjected to HPLC as described by Bursten and Harris, Biochemistry (1991)------. In this method, a Rainin mu-Porasil column is used with a 3:4 hexane:propanol organic carrier and a 1-10% water gradient during the first 10 minutes of separation. Detection of the peaks in the elution pattern is by absorption in the range of ultraviolet which detects isolated double bonds. Thus, the relevant peaks of unsaturated PA and DAG are shown in the elution pattern. It is important to note that the assay method permits discrimination between various forms of PA and DAG so that those relevant to the pathway affected by the compounds of Formula I can be measured directly. Confirmation of the nature of the acyl substituents of these components is accomplished using fast-atom bombardment mass spectroscopy. Thus, the relevant unsaturated (non-arachidonic) PA and DAG subspecies may be detected. The time periods employed are 5-60 seconds after stimulation with the primary stimulus, such as a cytokine. This technique permits assessment of the levels of various lipid components as a function of time.
To test the effect of the compounds of the invention, the candidate compound is included in the initial incubation at various concentrations. Fixing, extraction and HPLC are conducted as above. The effect of the candidate compound is then reflected in a lowering of the relevant PA and DAG levels as compared to the cells without candidate in the control as illustrated hereinbelow.
as §2
as §3, with “Determination of phospholipid phosphorus is as nmoles/mg cellular protein.” left out, “technique. […]” for “technique.”

[11] = test system: Steel factor transcripts in marrow stromal cell lines; experiment: Northern blot of Steel factor transcripts; type: cell-based; conditions: three-hour incubation; passaged or cloned (CDCL) marrow stromal cell lines; FIGS. 17 and 18
CD3-positive lymphocytes = experiment: Proliferation of anti-CD3-stimulated CD2-positive cells (thymidine uptake); type: cell-based; conditions: CD2-positive T-cells, adsorbed monoclonal antibody 64.1, harvested after 5 days; IL-1 or TNF failed to reverse; FIG. 21
Experimental: In these experiments, freshly isolated, CD2-positive cells were stimulated by a solid-phase monoclonal antibody to acquire a CD3 phenotype, and then PTX was added. […] The block in proliferation could not be overcome by addition of either tumor necrosis factor (FIGS. 20 and 21) or IL-1 (FIG. 21). […] The cytokines and PTX were added at culture inception and the cells were harvested after 5 days.

T cell proliferation = conditions: Singer et al., cited from earlier work
[12] = test system: NIH3T3 cell line (D5C3) transformed with temperature-sensitive v-abl mutant gene; experiment: Blocking transformed phenotype of D5C3 cells; type: cell-based, murine; conditions: 1 mM pentoxifylline; 33° C., 5 days
Experimental: An NIH3T3 cell line ([MUT]) provides target cells which were transformed by an activated oncogene. The cells were transformed with a temperature-sensitive v-abl mutant gene. This mutant gene encodes a temperature-sensitive v-abl protein that produces a non-oncogenic product at a non-permissive temperature due to a lack of tyrosine phosphorylation. The cells were incubated at the permissive temperature (33° C.) for 5 days after passage with and without pentoxifylline (1 mM).

[13] = test system: TNFα transcripts in U937 cells; experiment: Northern blot of TNFα transcripts after LPS induction; type: cell-based; conditions: 1 mM PTX; LPS three hours; FIG. 15

CC(=O)CCCCn1c(=O)c2c(ncn2C)n(C)c1=O [Pentoxifylline]
anchorage-independent growth in soft agar [1]: suppression of anchorage-independent growth
growth in vitro [1]: inhibition of growth
production of IL-6 transcripts [2]: increased production of IL-6 transcripts
TNF transcripts ([3]; FIG. 19A): suppression
IL-2 receptor transcripts ([3]; FIG. 19C): suppression
expression of cell surface antigens HLA-DR, CD71, CD25, CD69 [4]: decreased expression
GM-CSF-stimulated growth of colonies [5]: enhanced GM-CSF-stimulated growth of colonies
effect on secretion of TNFα versus TNF transcription (TNFα): greater effect on secretion of TNFα
synthesis of IL-8 (mRNA) [6]: did not inhibit, and indeed may upregulate
inhibition of PAPH [7]: inhibits PAPH
inhibitory effect on LPAAT [8]: evident only at higher concentrations
proliferative effect of TNF (thymidine uptake) ([9]; TNFα, FIG. 13B): enhances the proliferative effect of TNF
growth stimulated by IL-1 (thymidine uptake) ([9]; rhIL-1, FIG. 13A): arrested growth
cyclical formation of PA and conversion of PA to DAG (HPLC) ([10]; 100 μM pentoxifylline, 10^-11 M IL-1, 15- and 60-second points): no change
conversion of PA to DAG (HPLC) ([10]; 500 μM pentoxifylline, IL-1, 15 second time point): slight attenuation
elevation of PA and DAG by IL-1 (HPLC) ([10]; 1 mM PTX, all time points (15-60 seconds)): abolishes the elevation of PA and DAG
levels of Steel factor transcripts [11]: increases
thymidine uptake (CD3-positive lymphocytes): diminished by PTX in an concentration-dependent manner
proliferative response in a mixed lymphocyte culture (T cell proliferation; PTX added after triggering lymphocytes): still effective in blocking a proliferative response
proliferation of lymphocytes induced by anti-CD3 (T cell proliferation; exogenous recombinant TNF or IL-1 did not reverse): suppressed proliferation
appearance of cells [12]: predominantly non-transformed, fibroblastic appearance
TNF RNA in response to LPS stimulation [13]: undetectable level
